Values of other authors in patent US20260345609A1, “METHODS FOR PROMOTING PERSISTENCE OF CELL THERAPY” (Legend Biotech Ireland Limited, priority 2022, published 2026).

conditions: Short infusion; cited from earlier work

For `Nc1ccn([C@@H]2O[C@H](CO)[C@@H](O)C2(F)F)c(=O)n1` [Gemcitabine], which Half-life is on record?
The Half-life was “Short infusion: 32-94 min;”.

same assay, conditions: human, in vivo; cited from earlier work

With `Nc1nc(Cl)nc2c1ncn2[C@H]1C[C@H](O)[C@@H](CO)O1` [Cladribine] as the molecule, how does the Half-life read?
The Half-life was 10 h.

For `CN(C)/N=N/c1[nH]cnc1C(N)=O` [Dacarbazine], which Half-life is on record?
The Half-life was 5 h.

For `COc1cccc2c1C(=O)c1c(O)c3c(c(O)c1C2=O)C[C@@](O)(C(=O)CO)C[C@@H]3O[C@H]1C[C@H](N)[C@H](O)[C@H](C)O1` [Doxorubicin], which Half-life is on record?
The Half-life was 1 to 3 h.

For `O=c1[nH]cc(F)c(=O)[nH]1` [Fluorouracil], which Half-life is on record?
The Half-life was 0.267 h.

Which Half-life does the source give for `N[C@@H]1CCCC[C@H]1N.[Pt+2]` [Oxaliplatin] here?
Its Half-life is 0.167 to 0.417 h.

Which Half-life does the source give for `CC(=O)O[C@H]1C(=O)[C@@]2(C)[C@H]([C@H](OC(=O)c3ccccc3)[C@]3(O)C[C@H](OC(=O)[C@H](O)[C@@H](NC(=O)c4ccccc4)c4ccccc4)C(C)=C1C3(C)C)[C@]1(OC(C)=O)CO[C@@H]1C[C@@H]2O` [Paclitaxel] here?
Its Half-life is 5.8 h.

With `O=P1(N(CCCl)CCCl)NCCCO1` (centres unmarked) [cyclophosphamide] as the molecule, how does the Half-life read?
Its Half-life is 3 to 12 h.

Which Half-life does the source give for `Nc1nc(F)nc2c1ncn2[C@@H]1O[C@H](CO)[C@@H](O)[C@@H]1O` [fludarabine] here?
The Half-life was 20 h.

With `CC[C@]1(O)C[C@H]2CN(CCc3c([nH]c4ccccc34)[C@@](C(=O)OC)(c3cc4c(cc3OC)N(C)[C@H]3[C@@](O)(C(=O)OC)[C@H](OC(C)=O)[C@]5(CC)C=CCN6CC[C@]43[C@@H]65)C2)C1` [vinblastine] as the molecule, how does the Half-life read?
The Half-life was 24.8 h.

same assay, conditions: long infusion; cited from earlier work

With `Nc1ccn([C@@H]2O[C@H](CO)[C@@H](O)C2(F)F)c(=O)n1` [Gemcitabine] as the molecule, how does the Half-life read?
Its Half-life is “long infusion: 245-638 min”.
